Laboratory results published in US20070056049A1, “p53 and VEGF regulate tumor growth of NOS2 expressing cancer cells” (The Govt. of the USA as represented by the Secretary of the …, priority 1998, published 2007).
“Also recorded” adds a separate entry of the source.

Assays:
[1] = test system: NOS2-expressing HT-29 colon carcinoma cells; assay: Tumor xenoplantation of NOS2-expressing HT-29 colon carcinoma cells in athymic nude mice; type: in vivo; settings: 1% AG in the drinking water; mutant p53 HT-29 cells; Kaplan-Meier analysis p=0.002
Experimental: 3×10^5 cells of NOS2 (Retro-HNOS) and β-galactosidase (BaglacZ) expressing HT-29 cells were inoculated into 40 athymic nude mice, respectively. Half of the animals in both groups received 1% AG in the drinking water. […] This effect is abolished (p=0.002) through treatment with 1% AG.
(§1) A. Methods Tumor xenoplantation: Suspensions of 3×10^5 to 5×10^6 cells in a volume of 0.2 ml were injected at a single subcutaneous site into athymic nude mice previously irradiated with 350 rads. Either 10 or 20 animals were injected per experiment. A nodule was scored as a tumor when it measured 125 mm^3 or more by its largest two dimensions.
(§2) Statistical Analysis: The Kaplan-Meier survival analysis was used to calculate the statistical significance of tumor probabilities in different treatment groups. Other comparisons were carried out by the two-tailed Student's t-test. Relationships are considered statistically significant when p<0.05.

[2] = test system: NOS2-expressing Calu-6 cells; assay: Tumor xenoplantation of NOS2-expressing Calu-6 cells in athymic nude mice; type: in vivo; settings: 1% AG; p53 null Calu-6 cells, subcutaneous tumors; p<0.05, two-tailed Student's t-test
From the text: (§3) FIG. 2a-d: Tumor probability of NOS2-expressing human carcinoma cells lines is dependent on the p53 status. 3×10^6 cells of NOS2-expressing Calu-6 and LoVo carcinoma cells, and the vector controls (BaglacZ), were inoculated into 10 athymic nude mice, respectively. NOS2-expressing LoVo cells, which have two wild-type p53 alleles, grow slower (A) and produce smaller tumors (C) than vector controls (BaglacZ). In contrast, NOS2-expressing Calu-6 cells, which lack expression of functional p53, grow faster (B) and produce larger tumors (D) than the vector controls.
as §1, §2

[3] = test system: NOS2-expressing LoVo cells; assay: Tumor xenoplantation of NOS2-expressing LoVo cells in athymic nude mice; type: in vivo; settings: wild-type p53 LoVo cells, slow-growing tumors
From the text: as §3, §1, §2

[4] = test system: VEGF secretion of NOS2-expressing Calu-6 cells; assay: VEGF secretion into culture medium of NOS2-expressing Calu-6 cell clones (immunoprecipitation, western blot); type: cell-based, human; settings: 2 mM L-NMA, 48 hr, 3×10^6 cells in 4 ml of medium
Experimental: FIG. 7a-b: VEGF protein concentrations are higher (4.3 and 7.1-fold) in the culture medium of NOS2-expressing Calu-6 cells clones than in the culture medium of vector controls (A) and correlate with increased VEGF mRNA expression (B). […] 3×10^6 cells were cultured in 4 ml of medium for 48 hr±2 mM L-NMA. VEGF was immunoprecipitated out of 1 ml of culture medium. The 4.4 kb VEGF mRNA was detected by northern blotting was a 522 bp ^32P-labeled cDNA (exon 1-7), and the 7.5 kb polycistronic mRNA encoding NOS2 with the full-length human NOS2 cDNA (Geller et al., Proc. Natl. Acad. Sci. U.S.A. 90:3491-3495 (1993); Tzeng et al., Proc. Nat'l Acad. Sci USA 92:11771-11775 (1995)).
NOS2 and VEGF western blot analysis: Cell lysates for western blotting were prepared by solubilization of cell pellets in RIPA butter. VEGF protein concentrations were determined as follows. Five μg of rabbit polyclonal anti-VEGF antibody (Santa Cruz Biotechnology) were added to either 1 mg of cellular protein extract or 1 ml of cell culture medium, incubated for 1 hr at 8-10° C., and then mixed with protein A-sepharose (10 mg) for 1 hr. […] After transfer to an Immunobilon-P membrane (Millipore), NOS2 and VEGF protein were detected with either a polyclonal anti-NOS2 antibody (Merck), 1:40,000 diluted, or a polyclonal anti-VEGF, 1:1000 diluted, as described (Ambs et al., Cancer Res. 58:334-341 (1998)).

Structure (SMILES)	tumor probability / tumor growth of NOS2-expressing HT-29 cells [1]	tumor growth of NOS2-expressing Calu-6 cells [2]	tumor growth of NOS2-expressing LoVo cells [3]	VEGF secretion into the culture medium [4]
N=C(N)NN [aminoguanidine]	significantly reduced the tumor growth; also recorded: reverses the growth stimulatory effect of NOS2	significantly reduced the tumor growth; also recorded: inhibited; also recorded: suppressed the tumor growth	lack of an aminoguanidine effect	
CNC(=N)NCCC[C@H](N)C(=O)O [L-NMA, NG-monomethyl-L-arginine]				reduced the VEGF secretion; also recorded: decreases VEGF secretion
